Laboratory results published in patent US20120101093A1, “SUBSTITUTED IMIDAZO[1,2-A]PYRIDINE DERIVATIVES, PHARMACEUTICAL COMPOSITIONS, AND METHODS OF USE AS BETA-SECRETASE INHIBITORS” (HIGH POINT PHARMACEUTICALS, LLC, priority 2009, published 2012).

Columns and labels:
[1] = target: T1, BACE-1 enzyme (Homo sapiens, UniProt P56817); experiment: BACE Fluorescence Resonance Energy Transfer (FRET) Assay; assay type: biochemical; settings: pH 4-4.5, 30 min pre-incubation, about 1.5 hours reaction
T1 construct: purchased R & D Systems 931AS
T1 sequence (P56817 46-457 limits assumed): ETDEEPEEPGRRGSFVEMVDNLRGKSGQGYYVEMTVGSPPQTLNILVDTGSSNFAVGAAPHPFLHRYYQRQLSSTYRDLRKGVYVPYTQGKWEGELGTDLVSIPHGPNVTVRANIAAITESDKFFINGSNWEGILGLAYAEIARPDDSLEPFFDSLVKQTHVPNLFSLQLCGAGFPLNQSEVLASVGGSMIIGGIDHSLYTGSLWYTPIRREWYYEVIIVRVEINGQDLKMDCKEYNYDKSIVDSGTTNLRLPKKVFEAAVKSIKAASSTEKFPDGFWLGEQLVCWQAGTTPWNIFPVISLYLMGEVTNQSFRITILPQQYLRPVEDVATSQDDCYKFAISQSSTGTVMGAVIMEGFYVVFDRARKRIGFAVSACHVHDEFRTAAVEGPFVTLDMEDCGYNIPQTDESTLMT
Summary of the method: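 BACE-1 enzyme pre-incubated 30 min with compound in 7.5% DMSO in 50 mM sodium acetate pH 4-4.5, 0.01% CHAPS, 0.0125% Triton X-100, 0.006% EDTA. Rhodamine/quencher peptide substrate added; ~1.5 h at room temperature, fluorescence read at 540/585 nm. IC50 or percent inhibition at one concentration.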

[2] = tested on: Aβ1-40 secreted from HEK293 cells stably expressing wildtype human APP695 protein (HEK-APPwt cells); experiment: Aβ Cell Based Assay (Aβ1-40 secretion, ELISA); settings: Homo sapiens, HEK293, 6 h, 6 hours incubation, reduction of Aβ1-40 secretion
Description: Aβ Cell Based Assay Procedure
In the following assay, the proteolytic activity of BACE in cells exposed to varying concentrations of a compound of interest is measured by observing the amount of Aβ1-40 secreted from HEK293 cells (Human Embryonic Kidney epithelial cell line) stably expressing wildtype human APP695 protein (HEK-APPwt cells).
HEK-APPwt cells were grown in high glucose DMEM (Dulbecco's Modified Eagles Medium SIGMA Cat.# D5796) supplemented with 25 mM HEPES (4-(2-hydroxyethyl)-1-piperazineethanesulfonic acid) (pH 7.4) (Invitrogen Cat.# 15630-114), 0.1 mM NEAA (Non-essential Amino Acids) (BioWhittaker Cat. #13-114E), 10% fetal bovine serum (SIGMA Cat. #F4135) and 250 μg/mL hygromycin (Invitrogen Cat. #10687-010) in T-225 flasks at 37° C. with 5% CO2 and humidity control.
Test compounds were initially prepared in DMSO and diluted with DMEM media containing 2% FBS (Fetal bovine serum). Ten standard compound solutions were prepared having a range of concentrations. The standard compound solutions were used to determine the EC50 of the test compound. The range of concentrations chosen may depend on the compound's predicted potency.
To prepare the cells for the assay, a flask containing HEK-APPwt cells were trypsinized briefly (1 mL trypsin), and once the cells detached, 4 mL of 10% FBS-DMEM was added to the flask. The detached cells were centrifuged at 900 rpm for 5 min to form a pellet.
The HEK-APPwt cell pellet was re-suspended with 10 mL DMEM media containing 2% FBS. 80 μL of the cell suspension was added to each well of a 96-well cell culture plate to give 100×10^4cells/ml. 10 μL of a standard compound solution was added to each well of the 96-well cell culture plate followed by 10 μL of Alamar blue solution. The cells were incubated at 37° C. in a 5% CO2 incubator for 6 hours.
At the end of the incubation, the plates were removed from incubator, and the supernatant was collected. A≈1-40 concentration in the medium was measured by using a commercial Aβ1-X ELISA kit (IBL, Japan Cat. #27729). Briefly, the ELISA plates were coated with an anti-human AO (N)(82E1) mouse IgG monoclonal antibody. A horseradish peroxidase conjugated anti-human Aβ11-28 mouse IgG monoclonal antibody was used for detection. The cell culture supernatant was diluted with EIA buffer +protease inhibitors (kit buffer containing protease inhibitors (1 mL PI/30 mL buffer)). A 100 μL aliquot of the diluted supernatant was added to each well of the ELISA plate and incubated for 6 hrs at 4° C. The ELISA plate was washed 8 times with phosphate buffered saline (PBS) containing 0.05% Tween 20.
A 100 μL of detection antibody was then added and incubated for 1 hour at 4° C. The plate was washed 8 times with PBS buffer containing 0.05% Tween 20 followed by addition of 100 μL of the chromogen tetramethylbenzidine (TMB). The plate was incubated in the dark at room temperature for about 30 min and a stop solution (1N H2SO4) was added.
The intensity of the color developed was measured at 450 nm. The optical density at 450 nm (OD450) is proportional to the concentration of human Aβ1-40 secreted by the cell. As a reference, N-[N-(3,5-difluorophenacetyl-L-alanyl)]-S-phenylglycine t-butyl ester (DAPT, a γ-secretase inhibitor) was used to indicate 100% inhibition of BACE activity. Thus, the assay measures the ability of a compound of interest to reduce Aβ1-40 secretion. For select compounds, compound potency is reported in Table 3 as the EC50 by calculating the percent inhibition at all concentration levels and the data were fit with non-linear curve fitting algorithm using GraphPad Prism.

Row | SMILES | IC50 [1] [µM] | EC50 [2] [µM]
1 | Cc1cccc2nc(C(=O)Nc3nc4cc(C5=CCCCC5)ccc4[nH]3)cn12 [Example 83, 5-Methyl-imidazo[1,2-a]pyridine-2-carboxylic acid (5-cyclohex-1-enyl-1H-benzoimidazol-2-yl)-amide] | 1.45 | 4.17
2 | Cc1cccn2cc(C(=O)Nc3nc4cc(-c5cccc(C#N)c5)ccc4[nH]3)nc12 [Example 84, 8-Methyl-imidazo[1,2-a]pyridine-2-carboxylic acid [5-(3-cyano-phenyl)-1H-benzoimidazol-2-yl]-amide] | 1.21 | 2.9
3 | Cc1cccc2nc(C(=O)Nc3nc4cc(-c5cc(Cl)ccc5Cl)ccc4[nH]3)cn12 [Example 87, 5-Methyl-imidazo[1,2-a]pyridine-2-carboxylic acid [5-(2,5-dichloro-phenyl)-1H-benzoimidazol-2-yl]-amide] | 0.22 | 0.73
4 | Cc1cccc2nc(C(=O)Nc3nc4cc(-c5ccc(OC(C)C)cc5)ccc4[nH]3)cn12 [Example 97, 5-Methyl-imidazo[1,2-a]pyridine-2-carboxylic acid [5-(4-isopropoxy-phenyl)-1H-benzoimidazol-2-yl]-amide] | 0.58 | 1.78
5 | Cc1cc(-c2ccc3[nH]c(NC(=O)c4cn5c(C)cccc5n4)nc3c2)ccc1Cl [Example 99, 5-Methyl-imidazo[1,2-a]pyridine-2-carboxylic acid [5-(4-chloro-3-methyl-phenyl)-1H-benzoimidazol-2-yl]-amide] | 0.27 | 0.12
6 | Cc1cccc2nc(C(=O)Nc3nc4cc(-c5ccsc5)ccc4[nH]3)cn12 [Example 102, 5-Methyl-imidazo[1,2-a]pyridine-2-carboxylic acid (5-thiophen-3-yl-1H-benzoimidazol-2-yl)-amide] | 0.45 | 2.46
7 | CCOc1ccc(-c2ccc3[nH]c(NC(=O)c4cn5c(C)cccc5n4)nc3c2)cc1Cl [Example 106, 5-Methyl-imidazo[1,2-a]pyridine-2-carboxylic acid [5-(3-chloro-4-ethoxy-phenyl)-1H-benzoimidazol-2-yl]-amide] | 0.8 | 0.93
8 | CCOc1ccc(-c2ccc3[nH]c(NC(=O)c4cn5c(C)cccc5n4)nc3c2)cc1C [Example 107, 5-Methyl-imidazo[1,2-a]pyridine-2-carboxylic acid [5-(4-ethoxy-3-methyl-phenyl)-1H-benzoimidazol-2-yl]-amide] | 0.84 | 2.95

Now from value to compound, other results behind:

Row | IC50 [1] [µM] | SMILES | EC50 [2] [µM]
9 | 0.6 | Cc1cccc2nc(C(=O)Nc3nc4cc(-c5ccc(C(F)(F)F)c(Cl)c5)ccc4[nH]3)cn12 [Example 92, 5-Methyl-imidazo[1,2-a]pyridine-2-carboxylic acid [5-(3-chloro-4-trifluoromethyl-phenyl)-1H-benzoimidazol-2-yl]-amide] | 0.22
10 | 0.46 | Cc1cccc2nc(C(=O)Nc3nc4cc(-c5ccc(O)c(C(F)(F)F)c5)ccc4[nH]3)cn12 [Example 100, 5-Methyl-imidazo[1,2-a]pyridine-2-carboxylic acid [5-(4-hydroxy-3-trifluoromethyl-phenyl)-1H-benzoimidazol-2-yl]-amide] | 2.44
11 | 0.87 | Cc1cccc2nc(C(=O)Nc3nc4cc(-c5cccc(C(F)(F)F)c5O)ccc4[nH]3)cn12 [Example 109, 5-Methyl-imidazo[1,2-a]pyridine-2-carboxylic acid [5-(2-hydroxy-3-trifluoromethyl-phenyl)-1H-benzoimidazol-2-yl]-amide] | 4.85
12 | 0.4 | COc1c(-c2ccc3[nH]c(NC(=O)c4cn5c(C)cccc5n4)nc3c2)cccc1C(F)(F)F [Example 110, 5-Methyl-imidazo[1,2-a]pyridine-2-carboxylic acid [5-(2-methoxy-3-trifluoromethyl-phenyl)-1H-benzoimidazol-2-yl]-amide] | 0.75
